Laboratory results published in patent US8044089B2, “3-3-di-substituted-oxindoles as inhibitors of translation initiation” (President and Fellows of Harvard College, priority 2004, dated 2011).
Read-outs that look alike come from different tables or passages of the source.

What was measured:
A549 lung cancer cells = test: SRB growth inhibition of A549 lung cancer cells; type: cell-based, human; conditions: A549 lung cancer cells, unit inferred, read-out: SRB (IC50 for growth inhibition of A549 lung cancer cells)
Text: As a non-limiting example, compounds 1272 and 1273 (set forth in Table 1) were synthesized starting from 3-bromoaniline, which upon condensation with hydroxylamine and chloral hydrate followed by concentrated sulfuric acid yielded an inseparable regioisomeric mixture of 4- and 6-bromo isatins. The addition of the two phenyl groups to the three position of the oxindole allowed easy chromatographic separation of the 4- and 6-bromo-3,3-diphenyloxindoles 1272 and 1273. Table 1 sets forth biological data for diaryloxindole compounds including, but not limited to 1272 and 1273. For Tables 1-14, Ca^2+ refers to Ca^2+ release from intracellular stores where a “+” denotes release and a “+/−” denotes inconclusive; eIF2α-P refers to phosphorylation of eIF2α measured by Western blot; SRB refers to the inhibitory concentration to reduce cell growth by 50% (IC50) for growth inhibition of A549 lung cancer cells; and n.d. is not determined. […]

[1] = test system: intracellular Ca^2+ stores; test: Ca2+ release from intracellular stores (FURA-2AM loaded cells); type: cell-based; design: key to Ca^2+ (Ca^2+ release from intracellular stores): a “+” denotes release; a “+/−” denotes inconclusive
Text: As a non-limiting example, compounds 1272 and 1273 (set forth in Table 1) were synthesized starting from 3-bromoaniline, which upon condensation with hydroxylamine and chloral hydrate followed by concentrated sulfuric acid yielded an inseparable regioisomeric mixture of 4- and 6-bromo isatins. The addition of the two phenyl groups to the three position of the oxindole allowed easy chromatographic separation of the 4- and 6-bromo-3,3-diphenyloxindoles 1272 and 1273. Table 1 sets forth biological data for diaryloxindole compounds including, but not limited to 1272 and 1273. For Tables 1-14, Ca^2+ refers to Ca^2+ release from intracellular stores where a “+” denotes release and a “+/−” denotes inconclusive; eIF2α-P refers to phosphorylation of eIF2α measured by Western blot; SRB refers to the inhibitory concentration to reduce cell growth by 50% (IC50) for growth inhibition of A549 lung cancer cells; and n.d. is not determined.
Without intending to be bound by theory, the mechanism of action of translation initiation inhibitors is set forth in FIG. 1, and includes the depletion (complete or partial depletion) of intracellular calcium (Ca^2+) stores and phosphorylation of eIF2α. Compounds synthesized using the approaches described herein were screened for their ability to partially deplete intracellular Ca^2+ stores using FURA-2AM loaded cells (Benzaquen et al. (1995) Nature Medicine, 1:534, incorporated herein by reference in its entirety for all purposes). A limited subset of compounds were further screened for their ability to deplete endoplasmic reticulum (ER) Ca^2+. The Ca^2+ content of the ER was monitored using ER-targeted, Ca^2+ sensitive, recombinant proteins. These recombinant proteins emitted light by fluorescent resonance energy transfer (FRET) as a function of the Ca^2+ content of the medium. Such assays are previously described (Miyawaki, A.; Mizuno, H.; Llopis, J.; Tsien, R. Y.; Jalink, K. Cameleons as cytosolic and intra-organellar calcium probes, Oxford University Press: Oxford, London, 2001; pp 3-16, incorporated herein by reference in its entirety for all purposes). Compounds that depleted Ca^2+ were further evaluated for their ability to phosphorylate eIF2α. eIF2α phosphorylation was measured by Western blot analysis using the phospho-specific anti-eIF2α antibody, as previously described (Aktas et al. (1998) Proc. Natl. Acad. Sci. USA, 95:8280, incorporated herein by reference in its entirety for all purposes).

Row | SMILES | IC50 (A549 lung cancer cells) | Ca^2+ (Ca^2+ release from intracellular stores) [1] | IC50 (A549 lung cancer cells; Homo sapiens)
1 | CC(C)(C)c1ccc(O)c(C2(c3cccs3)C(=O)Nc3ccccc32)c1 (stereo not drawn) [Compound 1222] | 9 µM | + | 
2 | CC(C)(C)c1cccc(C2(n3ccnc3)C(=O)Nc3ccccc32)c1 (stereo not drawn) [Compound 1318] | 2 µM | + | 
3 | O=C1Nc2ccccc2C1(c1ccc(O)cc1)c1ccc(Oc2ccccc2)cc1 (stereo not drawn) [Compound 1260] | 12 µM | + | 
4 | COC(=O)C(N)Cc1ccc(O)c(C2(c3ccccc3)C(=O)Nc3ccccc32)c1 (stereo not drawn) [Compound 1171] |  | + | 
5 | Cc1cccc(C2(n3ccnc3)C(=O)Nc3ccccc32)c1 (stereo not drawn) [Compound 1317] | > 20 µM |  | 
6 | O=C1Nc2ccccc2C1(c1cccc(F)c1)n1ccnc1 (stereo not drawn) [Compound 1316] | > 20 µM |  | 
7 | C=CCOCN1C(=O)C(c2ccccc2)(c2cc(C(C)(C)C)ccc2O)c2ccccc21 (stereo not drawn) [Compound 1227] | 3 µM | + | 
8 | C=CCN1C(=O)C(c2ccccc2)(c2ccccc2)c2ccccc21 [Compound 1303] | 15 µM | +/− | 
9 | Cc1cc(C2(c3ccccc3)C(=O)Nc3ccccc32)c(NS(C)(=O)=O)cc1O (stereo not drawn) [Compound 1427] | 14 µM | + | 
10 | CC(C)(C)c1ccc(O)c(C2(c3ccccc3)C(=O)Nc3c(Br)cccc32)c1 (stereo not drawn) [Compound 1196] | 3 µM | + | 
11 | NCCCCOc1ccc(O)c(C2(c3ccccc3)C(=O)Nc3ccccc32)c1 (stereo not drawn) [Compound 1228] | 5 µM | + | 
12 | CC(C)(C)c1ccc(S(=O)(=O)Nc2ccc(C3(c4ccccc4)C(=O)Nc4ccccc43)c(O)c2)cc1 (stereo not drawn) [Compound 1624] | < 1 µM | + | 
13 | CC(C)(C)c1ccc(OC(=O)CCCCCCC(=O)O)c(C2(c3ccccc3)C(=O)Nc3ccccc32)c1 (stereo not drawn) [Compound 1321] | 16 µM | + | 
14 | O=C1Nc2ccccc2C1(c1ccccc1)c1cc(OCCCCBr)ccc1O (stereo not drawn) [Compound 1203] | 8 µM | + | 
15 | CC(C)(C)c1ccc(O)c(C2(c3cc(C(C)(C)C)ccc3O)C(=O)Nc3ccccc32)c1 [Compound 1195] | 3 µM | + | 
16 | O=C1N(c2ccccc2)c2ccccc2C1(c1ccccc1)c1ccccc1 [Compound 1300] | 8 µM |  | 
17 | CN1C(=O)C(c2ccccc2)(c2ccccc2)c2ccccc21 [Compound 1301] |  | + | 
18 | O=C1Nc2ccccc2C1(c1cccc(Cl)c1)n1ccnc1 (stereo not drawn) [Compound 1314] | > 20 µM | + | 
19 | Cc1cc(C2(c3ccccc3)C(=O)Nc3c(C(=O)O)cccc32)c(NS(=O)(=O)c2ccc(C(C)(C)C)cc2)cc1O (stereo not drawn) [Compound 1431] | > 20 µM |  | 
20 | O=C1Nc2ccccc2C1(c1ccc(O)cc1)c1ccc(O)cc1 [Compound 1259] | > 20 µM |  | 
21 | CC(C)(C)c1ccc(O)c(C2(c3ccccc3)C(=O)N(c3ccccc3)c3ccccc32)c1 (stereo not drawn) [Compound 1255] | 4 µM |  | 
22 | CC(C)(C)c1ccc(O)c(C2(c3ccccc3)CNc3ccccc32)c1 (stereo not drawn) [Compound 1182] | 12 µM | + | 
23 | O=C1Nc2ccc(OC(F)(F)F)cc2C1(c1ccccc1)c1ccccc1 [Compound 1263] | 8 µM | + | 
24 | CC(C)(C)c1ccc(O)c(C2(c3ccccc3)C(=O)Nc3ccc(NS(=O)(=O)c4cccc5ccccc45)cc32)c1 (stereo not drawn) [Compound 1238] | 3 µM | +/− | 
25 | O=C1Nc2ccccc2C1(c1ccccc1)c1cc(C(F)(F)F)ccc1O (stereo not drawn) [Compound 1243] | > 20 µM |  | 

Row | SMILES | IC50 (A549 lung cancer cells) | Ca^2+ (Ca^2+ release from intracellular stores) [1] | IC50 (A549 lung cancer cells; Homo sapiens)
26 | CC(C)(C)c1ccc(S(=O)(=O)Nc2cc(O)ccc2C2(c3ccccc3)C(=O)Nc3ccccc32)cc1 (stereo not drawn) [Compound 1623] | < 1 µM | + | 
27 | COc1ccc(C2(c3ccc(OC)cc3O)C(=O)Nc3ccccc32)c(O)c1 [Compound 1163] | 10 µM | + | 
28 | CN(C)CCCCOc1ccc(O)c(C2(c3ccccc3)C(=O)Nc3ccccc32)c1 (stereo not drawn) [Compound 1216] | > 20 µM | +/− | 
29 | O=C1NC(=O)C(Cc2ccc(O)c(C3(c4ccccc4)C(=O)Nc4ccccc43)c2)S1 (stereo not drawn) [Compound 1220] | 16 µM | +/− | 
30 | CC(=O)Nc1cc(O)c(C)cc1C1(c2ccccc2)C(=O)Nc2ccccc21 (stereo not drawn) [Compound 1639] | > 20 µM |  | 
31 | O=C1N(S(=O)(=O)c2ccc(Oc3ccccc3)cc2)c2ccccc2C1(c1ccccc1)c1ccccc1 [Compound 1307] | > 20 µM |  | 
32 | [N-]=[N+]=NCCCCOc1cccc(C2(c3ccccc3)C(=O)Nc3ccccc32)c1O (stereo not drawn) [Compound 1200] | 3 µM | + | 
33 | CCCc1ccc(C2(c3ccccc3)C(=O)Nc3ccccc32)cc1 (stereo not drawn) [Compound 1296] | 11 µM | + | 
34 | CCCCOc1ccc(S(=O)(=O)N2C(=O)C(c3ccccc3)(c3ccccc3)c3ccccc32)cc1 [Compound 1306] | > 20 µM |  | 
35 | Cc1cc2c(c(C3(c4ccccc4)C(=O)Nc4ccccc43)c1)NCC2 (stereo not drawn) [Compound 1313] |  | + | > 20 µM
36 | CC(C)(C)c1ccc(OS(=O)(=O)CC23CCC(CC2=O)C3(C)C)c(C2(c3ccccc3)C(=O)Nc3ccccc32)c1 (stereo not drawn) [Compound 1319] | 2 µM | + | 
37 | O=C1Nc2ccccc2C1(c1ccccc1)c1cc(O)ccc1O (stereo not drawn) [Compound 1201] |  | + | 
38 | O=C1N(Cc2ccc(Cl)cc2)c2ccccc2C1(c1ccccc1)c1ccccc1 [Compound 1302] | 14 µM |  | 
39 | CC(C)(C)c1ccc(O)c(C2(c3ccccc3)C(=O)Nc3cccc(Cl)c32)c1 (stereo not drawn) [Compound 1428] | 3 µM | + | 
40 | CC(C)(C)c1ccc(OC(=O)CCCC(=O)NO)c(C2(c3ccccc3)C(=O)Nc3ccccc32)c1 (stereo not drawn) [Compound 1323] | 3 µM | + | 
41 | CC(C)(C)c1ccc(S(=O)(=O)N2C(=O)C(c3ccccc3)(c3ccccc3)c3ccccc32)cc1 [Compound 1311] | 11 µM |  | 
42 | O=C1Nc2ccccc2C1(c1ccccc1)n1ccnc1 (stereo not drawn) [Compound 1315] | > 20 µM |  | 
43 | CC(C)(C)c1ccc(O)c(C2(c3ccccc3)C(=O)N(CC(=O)O)c3ccccc32)c1 (stereo not drawn) [Compound 1339] | > 20 µM |  | 
44 | CC(C)(C)c1ccc2c(c1)C1(c3ccccc3)C(=O)N(C/C=C\CO2)c2ccccc21 (stereo not drawn) [Compound 1291] |  |  | > 20 µM
45 | Cc1cc(O)c(NS(=O)(=O)c2ccc(C(C)(C)C)cc2)cc1C1(c2ccccc2)C(=O)Nc2ccccc21 (stereo not drawn) [Compound 1648] |  | + | 
46 | CC(C)(C)c1ccc(OCC#N)c(C2(c3ccccc3)C(=O)N(CC#N)c3ccccc32)c1 (stereo not drawn) [Compound 1320] |  |  | 4 µM
47 | O=C1N(CO)c2ccccc2C1(c1ccccc1)c1ccccc1 [Compound 1304] | 10 µM |  | 
48 | CC(=O)Nc1ccc(S(=O)(=O)N2C(=O)C(c3ccccc3)(c3ccccc3)c3ccccc32)cc1 [Compound 1308] | 11 µM |  | 
49 | COc1ccc(C2(c3ccccc3)C(=O)Nc3ccccc32)c(CC(=O)O)c1 (stereo not drawn) [Compound 1327] | > 20 µM |  | 
